Publication PMC10345685, “Anthocyanin and proanthocyanidin from Aronia melanocarpa (Michx.) Ell.: Purification, fractionation, and enzyme inhibition” (Food Science & Nutrition, 2023)
Like-named read-outs stand apart in the source and are kept apart here.

What was measured:
[1] = biological target: T1, Lipase from human porcine pancreas (Sus scrofa, UniProt P00591); assay: Lipase inhibition (pNP laurate substrate); type: biochemical; conditions: comparison among the anthocyanins / proanthocyanidin fractions
T1 construct: purchased Sigma‐Aldrich, Inc (Shanghai, China)
T1 sequence (P00591 1-450): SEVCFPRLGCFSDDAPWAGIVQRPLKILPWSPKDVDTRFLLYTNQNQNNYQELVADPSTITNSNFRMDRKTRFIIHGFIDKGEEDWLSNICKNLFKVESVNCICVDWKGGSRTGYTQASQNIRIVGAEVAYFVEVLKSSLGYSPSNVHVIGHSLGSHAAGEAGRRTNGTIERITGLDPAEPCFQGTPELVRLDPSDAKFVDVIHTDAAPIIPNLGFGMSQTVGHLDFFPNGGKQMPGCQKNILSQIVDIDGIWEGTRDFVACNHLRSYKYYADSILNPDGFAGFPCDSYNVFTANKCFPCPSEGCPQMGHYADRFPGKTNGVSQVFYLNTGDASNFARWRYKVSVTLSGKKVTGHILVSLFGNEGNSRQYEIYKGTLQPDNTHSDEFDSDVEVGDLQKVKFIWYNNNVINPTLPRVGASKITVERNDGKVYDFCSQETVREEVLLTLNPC
Excerpt: (§1) All the chemicals used for analyses were of analytical grade and high‐performance liquid chromatography (HPLC) chemicals were of HPLC purity and were all purchased from Sinopharm Chemical Reagent Co., Ltd (Shanghai, China). Lipase from […] porcine pancreas (EC 3.1.1.3), α‐amylase from human pancreas (EC 3.2.1.1), and α‐glucosidase from Bacillus stearothermophilus (EC 3.2.1.20) were obtained from Sigma‐Aldrich, Inc (Shanghai, China). Standards of cyanidin 3‐galactoside, cyanidin 3‐arabinoside, cyanidin 3‐xyloside, cyanidin 3‐glucoside, catechin, and epicatechin were obtained from Sigma‐Aldrich, Inc. (Shanghai, China). Amberlite XAD7HP, Sephadex LH‐20, and ENVI 18 DSK SPE were obtained from Sigma‐Aldrich, Inc (Shanghai, China).
The lipase inhibitory activity was determined according to the method described by Tan et al. ([2017]) with modifications (Table 3). Three hundred and fifty μL phosphate buffer (0.05 M, pH 7.6), 150 μL of porcine lipase enzyme solution (50 mg/mL), and 50 μL of fractionated compounds were added in a centrifuge tube (1.5 mL size) and incubated at 37°C for exactly 10 min. Then, 450 μL pNP laurate substrate was added to the reaction mixture and blended, followed by incubation at 37°C for 120 min without light. The reaction mixture was centrifuged for 10 min at 8000 g and the supernatant of 200 μL was taken into a 96‐well plate to determine the absorbance at 405 nm. The percentage inhibition was calculated using Equation 4. Lipase inhibitory activity was measured at five different concentrations, and a logarithmic regression curve was established to calculate IC50 values (Tan et al., [2017]). (4) Lipase inhibitory activity%=1−As−Ab/At−Ac×100%

α‐Glucosidase = conditions: cited from earlier work
Lipase = conditions: cited from earlier work
α‐Amylase = conditions: cited from earlier work
[2] = biological target: T2, α‐amylase from human pancreas (Homo sapiens, UniProt P04746); assay: α‐Amylase inhibition (DNS method, soluble starch); type: biochemical; conditions: comparison among the anthocyanins / proanthocyanidin fractions
T2 construct: purchased Sigma‐Aldrich, Inc (Shanghai, China)
T2 sequence (P04746 16-511): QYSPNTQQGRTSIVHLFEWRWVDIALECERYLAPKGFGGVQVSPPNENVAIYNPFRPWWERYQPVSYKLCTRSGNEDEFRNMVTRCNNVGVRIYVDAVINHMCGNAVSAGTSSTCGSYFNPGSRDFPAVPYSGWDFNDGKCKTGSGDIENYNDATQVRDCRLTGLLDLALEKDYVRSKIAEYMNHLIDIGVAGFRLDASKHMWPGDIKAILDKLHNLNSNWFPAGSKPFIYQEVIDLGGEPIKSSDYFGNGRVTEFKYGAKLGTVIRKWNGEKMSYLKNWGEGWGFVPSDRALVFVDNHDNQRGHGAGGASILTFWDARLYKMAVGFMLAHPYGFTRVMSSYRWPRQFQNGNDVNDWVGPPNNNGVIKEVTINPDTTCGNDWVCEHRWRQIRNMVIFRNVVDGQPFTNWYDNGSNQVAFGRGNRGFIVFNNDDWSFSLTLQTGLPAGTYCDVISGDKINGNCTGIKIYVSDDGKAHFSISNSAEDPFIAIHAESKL
Excerpt: as §1, with “Amberlite XAD7HP, Sephadex LH‐20, and ENVI 18 DSK SPE were obtained from Sigma‐Aldrich, Inc (Shanghai, China).” left out
α‐Amylase inhibitory activity was determined using the method from Tan et al. ([2017]), with a slight modification as Table 1 indicates. […] Then, 200 μL of the mixture was taken and added to a 96‐well plate and the absorption at 540 nm was determined. To eliminate the background absorbance produced by the fractionated compounds, an appropriate extract control without enzyme was included. α‐Amylase inhibitory activity was measured at five different concentrations, and a logarithmic regression curve was established to calculate IC50 values (mg/mL) (Tan et al., [2017]). The α‐amylase inhibitory activity was expressed as function 2 and the As, Ab, At, and Ac indicated the absorbance in different solutions as shown in Table 1. […]

[3] = nf, not found, ref Worsztynowicz et al., 2014
[4] = ref Akkarachiyasit et al., 2010

Compound | inhibition effect on lipase (in words) [1] | IC50 values α‐Glucosidase (α‐Glucosidase; ref Bräunlich et al., 2013) | IC50 values Lipase (Lipase; [3]) | IC50 values α‐Amylase (α‐Amylase; [3]) | IC50 values α‐Glucosidase (α‐Glucosidase; for sucrose, ref Adisakwattana et al., 2009) | IC50 (α‐Amylase; [4]) | IC50 values α‐Glucosidase (α‐Glucosidase; for sucrose, ref Akkarachiyasit et al., 2010) | IC50 values Lipase (Lipase; ref Vijayaraj et al., 2019) | inhibition effect on α‐amylase (in words) [2] | IC50 values α‐Amylase (α‐Amylase; [4])
Oc1cc(O)c2cc(OC3OCC(O)C(O)C3O)c(-c3ccc(O)c(O)c3)[o+]c2c1 (centres unmarked) [Cyanidin 3‐arabinoside, cyanidin 3‐arabinoside] | no inhibition effects | 0.37 ± 0.08 μg/mL (Bräunlich et al., [2013]) | nf (Worsztynowicz et al., [2014]) | 3.98 ± 0.10 mg/mL (Worsztynowicz et al., [2014]) | – | – | – | – | – | –
OCC1OC(Oc2cc3c(O)cc(O)cc3[o+]c2-c2ccc(O)c(O)c2)C(O)C(O)C1O (centres unmarked) [Cyanidin 3‐galactoside, cyanidin 3‐galactoside] | no inhibition effects | 1.54 ± 0.1 µg/mL | nf (Worsztynowicz et al., [2014]) | 5.16 ± 0.06 mg/mL | 224.5 ± 22.45 µg/mL | > 1000 µM | – | – | – | –
OCC1OC(Oc2cc3c(O)cc(O)cc3[o+]c2-c2ccc(O)c(O)c2)C(O)C(O)C1O (centres unmarked) [Cyanidin 3‐glucoside, cyanidin 3‐glucoside] | strongest inhibition effects | 0.87 ± 0.2 µg/mL | 1170 ± 40 µg/mL | 1.74 ± 0.04 mg/mL | – | – | 435.53 ± 22.45 µg/mL | 84.54 ± 2.94 µg/mL | strongest inhibition effects | 0.1347 ± 0.00449 mg/mL
Oc1cc(O)c2cc(OC3OCC(O)C(O)C3O)c(-c3ccc(O)c(O)c3)[o+]c2c1 (centres unmarked) [Cyanidin 3‐xyloside, cyanidin 3‐xyloside] | no inhibition effects | 5.5 ± 1.6 μg/mL (Bräunlich et al., [2013]) | nf (Worsztynowicz et al., [2014]) | nf (Worsztynowicz et al., [2014]) | – | – | – | – | no effect | –
